In patent US20220251109A1, “OXAAZAQUINAZOLINE-7(8H)-KETONE COMPOUND, PREPARATION METHOD THEREFOR AND PHARMACEUTICAL APPLICATION THEREOF” (GENFLEET THERAPEUTICS (SHANGHAI) INC., priority 2019, published 2022):
Like-named read-outs stand apart in the source and are kept apart here.

Columns and labels:
Format in all cases: cell-based, human
[1] = system: NCI-H358 cells (Kras G12C mutation); experiment: Cell proliferation inhibition experiment, 3D model, CellTiter-Glo (NCI-H358); details: NCI-H358, 3D sphere plate, 5 days, 2% FBS
Description: (§1) NCI-H358 was a human non-small cell lung cancer cell line with Kras G12C mutation, cultured in 10% FBS RPMI-1640 medium; A549 was a human lung adenocarcinoma cell line with Kras G12S mutation, cultured in 10% FBS F-12K medium. The cells in the logarithmic growth phase was taken, digested with trypsin EDTA, collected and counted, and H358 was adjusted to 1.8E4 cells/ml using 2% FBS RPMI-1640 medium, and A549 was adjusted to 8.9E3 cells/ml using 2% FBS F-12K medium; 800 (45 μl) H358 or 400 (45 μl) A549 cells were seeded in a 384-well sphere plate respectively, cultured overnight to establish a 3D cell model. DMSO was used to prepare 1000× compound 3.16-fold gradient concentration stock solution, and 2% FBS medium was used to dilute 100-fold to 10× compound stock solution. On the second day after cell seeding, 5 μl 10× compound stock solution was added to each cell culture well, the final concentration was 1×, and DMSO content was 0.1%. DMSO was used as the experimental control (control) and 2% FBS medium as the blank control (blank). After the compound and cells were added and cultured for 5 days, 25 μl CellTiter-Glo working solution was added to each well, mixed at 400 rpm and incubated for 30 minutes. After 30 minutes at room temperature, 40 μl of the mixture was transferred to a 384-well plate with a non-transparent white bottom, the luminescence chemiluminescence value was read, and the cells proliferation inhibition rate IR (%)=(RLU control-RLU compound)/(RLU control-RLU blank)×100% was calculated, Prism 6 four-parameter method was used to fit the compound's gradient dilution concentration and the corresponding cell proliferation inhibition rate, and the IC50 value was calculate.

[2] = system: A549 cells (Kras G12S mutation); experiment: Cell proliferation inhibition experiment, 3D model, CellTiter-Glo (A549); details: A549, 3D sphere plate, 5 days, 2% FBS
Description: as §1

[3] = system: MIA PaCa-2 cells (Kras G12C mutation); experiment: Cell proliferation inhibition experiment, 3D model, CellTiter-Glo (MIA PaCa-2); details: MIA PaCa-2, 3D sphere plate, 5 days, read-out: MIA-PaCa2 IC50
Description: MIA PaCa2 was a human pancreatic cancer cell line with Kras G12C mutation, cultured in 10% FBS+2.5% Horse serum DMEM medium; A549 was a human lung adenocarcinoma cell line with Kras G12S mutation, cultured in 10% FBS F-12K medium. The cells in the logarithmic growth phase were taken, digested with enzyme EDTA, collected, counted and 200 MIA PaCa-2 or 400 A549 cells were seeded in a 384-well sphere plate respectively, cultured overnight to establish a 3D cell model. DMSO was used to prepare 1000× compound 3.16-fold gradient concentration stock solution, and medium was used to dilute 100-fold to 10× compound stock solution. On the second day after cell seeding, 10× compound stock solution was added to each cell culture well, the final concentration was 1×, and DMSO content was 0.1%. DMSO was used as an experimental control (control), medium as the blank control (blank). After the compound and cells were added and cultured for 5 days, 30 μl CellTiter-Glo working solution was added to each well, mixed and incubated for 30 minutes. After 30 minutes at room temperature, 40 μl of the mixture was transferred to a 384-well plate with a non-transparent white bottom, the luminescence chemiluminescence value was read, and the cells proliferation inhibition rate IR (%)=(RLU control-RLU compound)/(RLU control-RLU blank)×100% was calculated, XLFit four-parameter method was used to fit the compound's gradient dilution concentration and the corresponding cell proliferation inhibition rate, and the IC50 value was calculate.

[4] = Homo sapiens, MIA PaCa-2, 120 h

Row | Compound | IC50 [1] [nM] | IC50 [2] [nM] | IC50 [3] [nM] | IC50 ([1]; Homo sapiens, NCI-H358, 120 h) [nM] | IC50 ([2]; Homo sapiens, A549, 120 h) [nM] | IC50 [3, 4] [nM]
1 | C=CC(=O)N1CCN2c3nc(=O)n(-c4c(C)ccnc4C(C)C)c4cc(-c5c(O)cccc5F)cc(c34)OC[C@@H]2C1 (atropisomer, axis not shown) [Compound Z15-2] | 149 | 29800 | 261 | – | – | –
2 | C=CC(=O)N1CCN2c3nc(=O)n(-c4c(C)ccnc4C(C)C)c4cc(-c5c(C)ccc6[nH]ncc56)c(Cl)c(c34)OC[C@@H]2C1 (atropisomer, axis not shown) [Compound Z26-2-2] | 2 | > 10000 | 3 | – | – | –
3 | C=CC(=O)N1CCN2c3nc(=O)n(-c4c(C)ccnc4C(C)C)c4cc(-c5c(C)ccc6[nH]ncc56)c(Cl)c(c34)OC[C@H]2C1 (atropisomer, axis not shown) [Compound Z30-2-2] | 3 | > 10000 | 4 | – | – | –
4 | C=CC(=O)N1CCN2c3nc(=O)n(-c4c(C)ccnc4C(C)C)c4cc(-c5c(O)cccc5F)cc(c34)OC[C@@H]2C1 (single isomer, unassigned) [Compound Z15-1] | 17 | 22200 | 20 | – | – | –
5 | C=CC(=O)N1CCN2c3nc(=O)n(C4CC4)c4cc(-c5c(C)ccc6[nH]ncc56)c(Cl)c(c34)OC[C@@H]2C1 (single isomer, unassigned) [Compound Z17-2] | – | – | – | 37 | 12800 | 33
6 | C=CC(=O)N1CCN2c3nc(=O)n(-c4c(C)ccnc4C(C)C)c4cc(-c5c(C)ccc6[nH]ncc56)cc(c34)OC[C@@H]2C1 (single isomer, unassigned) [Compound Z19-2] | 25 | 12000 | – | – | – | 24
7 | C=CC(=O)N1CCN2c3nc(=O)n(-c4ccccc4C(C)C)c4cc(-c5c(C)ccc6[nH]ncc56)c(Cl)c(c34)OC[C@@H]2C1 (single isomer, unassigned) [Compound Z20-1] | 10 | 12200 | 17 | – | – | –
8 | C=CC(=O)N1CCN2c3nc(=O)n(-c4ccccc4C(C)C)c4cc(-c5c(C)ccc6[nH]ncc56)c(Cl)c(c34)OC[C@@H]2C1 (single isomer, unassigned) [Compound Z20-2] | 46 | 5950 | 173 | – | – | –
9 | C=CC(=O)N1CCN2c3nc(=O)n(-c4ccccc4C(C)C)c4cc(-c5c(C)ccc6[nH]ncc56)c(Cl)c(c34)OC[C@@H]2C1 (single isomer, unassigned) [Compound Z20-3] | 0.6 | > 10000 | 0.5 | – | – | –
10 | C=CC(=O)N1CCN2c3nc(=O)n(-c4ccccc4C(C)C)c4cc(-c5c(C)ccc6[nH]ncc56)c(Cl)c(c34)OC[C@@H]2C1 (single isomer, unassigned) [Compound Z20-4] | 26 | 2670 | 51 | – | – | –
11 | C=CC(=O)N1CCN2c3nc(=O)n(-c4c(C)ccnc4C(C)C)c4cc(-c5c(C)ccc6[nH]ncc56)c(Cl)c(c34)OC[C@@H]2C1 (single isomer, unassigned) [Compound Z26-1] | 31 | – | 74 | – | 13800 | –
12 | C=CC(=O)N1CCN2c3nc(=O)n(-c4c(C)ccnc4C(C)C)c4cc(-c5c(C)ccc6[nH]ncc56)c(Cl)c(c34)OC[C@@H]2C1 (single isomer, unassigned) [Compound Z26-2] | 1 | > 10000 | 4 | – | – | –
13 | C=CC(=O)N1CCN2c3nc(=O)n(-c4c(C)ccnc4C(C)C)c4cc(-c5c(O)cccc5F)c(Cl)c(c34)OC[C@H]2C1 (single isomer, unassigned) [Compound Z29-1] | 3 | > 10000 | 8 | – | – | –
14 | C=CC(=O)N1CCN2c3nc(=O)n(-c4c(C)ccnc4C(C)C)c4cc(-c5c(O)cccc5F)c(Cl)c(c34)OC[C@H]2C1 (single isomer, unassigned) [Compound Z29-2] | 5 | > 10000 | 6 | – | – | –
15 | C=CC(=O)N1CCN2c3nc(=O)n(-c4c(C)ccnc4C(C)C)c4cc(-c5c(O)cccc5F)c(Cl)c(c34)OC[C@H]2C1 (single isomer, unassigned) [Compound Z29-4] | 44 | > 10000 | 358 | – | – | –
16 | C=CC(=O)N1CCN2c3nc(=O)n(-c4c(C)ccnc4C(C)C)c4cc(-c5c(C)ccc6[nH]ncc56)c(Cl)c(c34)OC[C@H]2C1 (single isomer, unassigned) [Compound Z30-1] | 65 | 25000 | 78 | – | – | –
17 | C=CC(=O)N1CCN2c3nc(=O)n(-c4c(C)ccnc4C(C)C)c4cc(-c5c(C)ccc6[nH]ncc56)c(Cl)c(c34)OC[C@H]2C1 (single isomer, unassigned) [Compound Z30-2] | 2 | 20700 | 5 | – | – | –
18 | C=CC(=O)N1CCN2c3nc(=O)n(-c4c(C)ccnc4C(C)C)c4nc(-c5c(O)cccc5F)cc(c34)OC[C@@H]2C1 (single isomer, unassigned) [Compound Z36-2] | – | – | – | 68 | 14400 | 121
19 | [2H]C([2H])([2H])Oc1cccc(F)c1-c1nc2c3c(nc(=O)n2-c2c(C)ccnc2C(C)C)N2CCN(C(=O)C=C)C[C@@H]2COc3c1F (single isomer, unassigned) [Compound Z100-1] | 2 | – | – | – | 19700 | 4
20 | C=CC(=O)N1CCN2c3nc(=O)n(-c4c(C)ncnc4C(C)C)c4nc(-c5c(O)cccc5F)c(F)c(c34)OC[C@H]2C1 (single isomer, unassigned) [Compound Z101-1] | 42 | – | 56 | – | > 10000 | –
21 | C=CC(=O)N1CCN2c3nc(=O)n(-c4c(C)ncnc4C(C)C)c4nc(-c5c(O)cccc5F)c(F)c(c34)OC[C@H]2C1 (single isomer, unassigned) [Compound Z101-2] | 3 | > 10000 | 3 | – | – | –
22 | C=CC(=O)N1CCN2c3nc(=O)n(-c4c(C)ccnc4C4CC4)c4nc(-c5ccccc5F)c(Cl)c(c34)OC[C@H]2C1 (single isomer, unassigned) [Compound Z102-1] | 4 | – | 4 | – | 13300 | –
23 | C=CC(=O)N1CCN2c3nc(=O)n(-c4c(C)ccnc4C4CC4)c4nc(-c5ccccc5F)c(Cl)c(c34)OC[C@H]2C1 (single isomer, unassigned) [Compound Z102-2] | 27 | 12200 | 83 | – | – | –
24 | Cc1ccnc(C(C)C)c1-n1c(=O)nc2c3c(c(Cl)c(-c4ccccc4F)nc31)OC[C@H]1CN(C(=O)/C=C/CN(C)C)CCN21 (single isomer, unassigned) [Compound Z237-2] | – | – | – | 47 | > 30000 | 48
25 | C=CC(=O)N1CCN2c3nc(=O)n(-c4c(C)ccnc4C(C)C)c4cc(-c5c(O)cccc5F)cc(c34)OC[C@H]2C1 [Compound Z16, (R)-2-acryloyl-10-(2-fluoro-6-hydroxyphenyl)-8-(2-isopropyl-4-methylpyridin-3-yl)-1,2,3,4,13,13a-hexahydropyrazino[2′,1′:3,4][1,4]oxazepine[5,6,7-de]quinazolin-7 (8H)-one] | – | – | – | 41 | > 10000 | 29
26 | C=CC(=O)N1CCN2c3nc(=O)n(C4CC4)c4cc(-c5c(C)ccc6[nH]ncc56)c(Cl)c(c34)OC[C@@H]2C1 [Compound Z17] | – | – | – | 63 | 22900 | 55
27 | C=CC(=O)N1CCN2c3nc(=O)n(-c4cccnc4C(C)C)c4cc(-c5c(C)ccc6[nH]ncc56)c(Cl)c(c34)OC[C@@H]2C1 [Compound Z39] | – | – | – | – | – | 444
